# Test results reported in ChEMBL document CHEMBL1201862, “PubChem BioAssay data set” (2004).
#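 96-well plates; 48 h exposure; 5 concentrations. Endpoints by linear interpolation between flanking doses. Not reached: highest tested concentration assigned. GI50: concentration for 50% inhibition of growth.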 Activity calls are given as the source filed them. Rule as the data show it: active = GI50 up to about 1.1 µM and inactive = higher.
# Assays:
# Experiment in all cases: growth of human tumour cells (NCI), 48 h
# UACC-62 = test system: UACC-62
# SNB-75 = test system: SNB-75
# IGROV-1 = test system: IGROV-1
# NCI-H522 = test system: NCI-H522
# SNB-19 = test system: SNB-19
# K562 = test system: K562
# HT-29 = test system: HT-29
# SF-268 = test system: SF-268
# M14 = test system: M14
# MDA-N = test system: MDA-N
# A498 = test system: A498
# CAKI-1 = test system: CAKI-1
# BT-549 = test system: BT-549
# NCI-H226 = test system: NCI-H226
# ACHN = test system: ACHN
# SN12C = test system: SN12C
# OVCAR-3 = test system: OVCAR-3
# A549 = test system: A549
# SK-MEL-2 = test system: SK-MEL-2
# T47D = test system: T47D
Compound,GI50 (UACC-62),GI50 (SNB-75),GI50 (IGROV-1),GI50 (NCI-H522),GI50 (SNB-19),GI50 (K562),GI50 (HT-29),GI50 (SF-268),GI50 (M14),GI50 (MDA-N),GI50 (A498),GI50 (CAKI-1),GI50 (BT-549),GI50 (NCI-H226),GI50 (ACHN),GI50 (SN12C),GI50 (OVCAR-3),GI50 (A549),GI50 (SK-MEL-2),GI50 (T47D)
Oc1cccnc1CN1CCCCC1,> 100 µM (inactive),> 100 µM (inactive),> 100 µM (inactive),> 100 µM (inactive),> 100 µM (inactive),> 100 µM (inactive),> 100 µM (inactive),> 100 µM (inactive),> 100 µM (inactive),> 100 µM (inactive),> 100 µM (inactive),> 100 µM (inactive),> 100 µM (inactive),> 100 µM (inactive),> 100 µM (inactive),> 100 µM (inactive),> 100 µM (inactive),> 100 µM (inactive),> 100 µM (inactive),> 100 µM (inactive)
COc1cc(/C=N/c2ccccn2)cc(OC)c1OC,> 100 µM (inactive),> 100 µM (inactive),> 100 µM (inactive),> 100 µM (inactive),80.5 µM (inactive),> 100 µM (inactive),> 100 µM (inactive),> 100 µM (inactive),> 100 µM (inactive),28.3 µM (inactive),> 100 µM (inactive),> 100 µM (inactive),> 100 µM (inactive),> 100 µM (inactive),> 100 µM (inactive),> 100 µM (inactive),> 100 µM (inactive),> 100 µM (inactive),> 100 µM (inactive),> 100 µM (inactive)
CC(C)(C)OC(=O)C(C#N)C(=O)c1ccc(C(=O)O)[nH]1 (stereo not drawn),18.3 µM (inactive),50.5 µM (inactive),,33.5 µM (inactive),41.5 µM (inactive),22.6 µM (inactive),39.2 µM (inactive),47.4 µM (inactive),44.2 µM (inactive),40.4 µM (inactive),20.5 µM (inactive),18.8 µM (inactive),48.5 µM (inactive),38 µM (inactive),32.2 µM (inactive),43.1 µM (inactive),29.3 µM (inactive),35.9 µM (inactive),23.6 µM (inactive),34.6 µM (inactive)
Cc1ccc2cccc(-c3cccc4ccccc34)c2n1,19.5 µM (inactive),8.87 µM (inactive),26.5 µM (inactive),23.7 µM (inactive),46.9 µM (inactive),4.66 µM (inactive),20.7 µM (inactive),25.5 µM (inactive),17.2 µM (inactive),4.2 µM (inactive),20.4 µM (inactive),26.6 µM (inactive),30.3 µM (inactive),20.5 µM (inactive),24.4 µM (inactive),25.6 µM (inactive),25.2 µM (inactive),29.5 µM (inactive),15 µM (inactive),15.8 µM (inactive)
O=C1Nc2ccc(Br)cc2/C1=N/NC(=S)Nc1ccc([N+](=O)[O-])cc1,5.5 µM (inactive),16 µM (inactive),5.08 µM (inactive),9.79 µM (inactive),,9.48 µM (inactive),7.71 µM (inactive),9.04 µM (inactive),,7.98 µM (inactive),5.56 µM (inactive),4.06 µM (inactive),2.28 µM (inactive),15.9 µM (inactive),5.19 µM (inactive),8.02 µM (inactive),6.65 µM (inactive),,13.7 µM (inactive),7.45 µM (inactive)
O=C1NC(SSC2=NNC3(C(=O)N2)c2ccccc2-c2ccccc23)=NNC12c1ccccc1-c1ccccc12,> 10 µM (inactive),> 10 µM (inactive),> 10 µM (inactive),> 10 µM (inactive),> 10 µM (inactive),> 10 µM (inactive),> 10 µM (inactive),> 10 µM (inactive),> 10 µM (inactive),> 10 µM (inactive),> 10 µM (inactive),> 10 µM (inactive),> 10 µM (inactive),> 10 µM (inactive),> 10 µM (inactive),> 10 µM (inactive),> 10 µM (inactive),> 10 µM (inactive),> 10 µM (inactive),> 10 µM (inactive)
CCOC(=O)C(=[N+]=[N-])C(=O)CN1C(=O)c2ccccc2C1=O,> 100 µM (inactive),> 100 µM (inactive),> 100 µM (inactive),> 100 µM (inactive),> 100 µM (inactive),> 100 µM (inactive),> 100 µM (inactive),> 100 µM (inactive),> 100 µM (inactive),> 100 µM (inactive),> 100 µM (inactive),> 100 µM (inactive),> 100 µM (inactive),,> 100 µM (inactive),> 100 µM (inactive),> 100 µM (inactive),> 100 µM (inactive),> 100 µM (inactive),> 100 µM (inactive)
O=C(/C=C1\N=C(c2ccccc2)N(c2nc3ccc(Sc4ccccc4)cc3[nH]2)C1=O)/C=C/c1ccccc1,22.9 µM (inactive),16.7 µM (inactive),45.4 µM (inactive),20.3 µM (inactive),49 µM (inactive),26.2 µM (inactive),30.3 µM (inactive),31.4 µM (inactive),33.3 µM (inactive),14.9 µM (inactive),27.9 µM (inactive),31.3 µM (inactive),31.1 µM (inactive),,52.7 µM (inactive),40 µM (inactive),29.6 µM (inactive),41.1 µM (inactive),18.7 µM (inactive),22.6 µM (inactive)
CCC(=O)Nc1cccc(NC(=O)c2c(Cl)c(Cl)c(Cl)c(Cl)c2-c2nc3ccccc3[nH]2)c1,5.21 µM (inactive),3.94 µM (inactive),14.2 µM (inactive),56.2 µM (inactive),1.03 µM (active),25.4 µM (inactive),66.2 µM (inactive),79.4 µM (inactive),29 µM (inactive),22 µM (inactive),> 100 µM (inactive),82.4 µM (inactive),87.3 µM (inactive),,80.7 µM (inactive),> 100 µM (inactive),> 100 µM (inactive),0.0851 µM (active),> 100 µM (inactive),7.82 µM (inactive)
Oc1cc(CN2COc3ccccc32)c(O)cc1CNC1CCCCC1,23.9 µM (inactive),18.8 µM (inactive),32.8 µM (inactive),14.1 µM (inactive),> 100 µM (inactive),21.9 µM (inactive),22 µM (inactive),16.2 µM (inactive),31.3 µM (inactive),17.7 µM (inactive),22 µM (inactive),28.3 µM (inactive),29.9 µM (inactive),,29.2 µM (inactive),30.7 µM (inactive),26.2 µM (inactive),> 100 µM (inactive),23.3 µM (inactive),26.4 µM (inactive)
COC(=O)c1c(O)c2c(c3c1OC(C)(C)CC3)OC(C)(C)CC2,18.9 µM (inactive),> 10 µM (inactive),19.6 µM (inactive),15.8 µM (inactive),18.2 µM (inactive),25.1 µM (inactive),16.7 µM (inactive),22.9 µM (inactive),19.1 µM (inactive),22.1 µM (inactive),18.7 µM (inactive),21.8 µM (inactive),20 µM (inactive),19.3 µM (inactive),18 µM (inactive),16 µM (inactive),20 µM (inactive),20.5 µM (inactive),,21.8 µM (inactive)
Cc1ccc2nc(-c3ccc(-n4c(C)nc(=O)c(-c5ccc(F)cc5)c4C)cc3)sc2c1,,13.7 µM (inactive),14.2 µM (inactive),15.1 µM (inactive),14.8 µM (inactive),10.8 µM (inactive),13.2 µM (inactive),20.3 µM (inactive),12.7 µM (inactive),14.4 µM (inactive),18.2 µM (inactive),17.8 µM (inactive),14.5 µM (inactive),17.5 µM (inactive),14.6 µM (inactive),15 µM (inactive),13.9 µM (inactive),14.7 µM (inactive),19.1 µM (inactive),3.3 µM (inactive)
COc1ccccc1NC(=O)CC(=O)N1N=C(C)C(/N=N/c2ccc(C(=O)O)cc2)C1=O (stereo not drawn),> 100 µM (inactive),2.24 µM (inactive),> 100 µM (inactive),> 100 µM (inactive),> 100 µM (inactive),> 100 µM (inactive),23.8 µM (inactive),> 100 µM (inactive),> 100 µM (inactive),> 100 µM (inactive),> 100 µM (inactive),> 100 µM (inactive),> 100 µM (inactive),,> 100 µM (inactive),> 100 µM (inactive),> 100 µM (inactive),> 100 µM (inactive),> 100 µM (inactive),> 100 µM (inactive)
COc1cc2c(cc1OC)C(C)N(C)c1c-2c(OC(C)=O)cc2cc(OC)c(OC)cc12 (stereo not drawn),12.5 µM (inactive),31 µM (inactive),,3.34 µM (inactive),27.5 µM (inactive),23.4 µM (inactive),8.04 µM (inactive),26.9 µM (inactive),11.7 µM (inactive),14.6 µM (inactive),10.7 µM (inactive),16.1 µM (inactive),18.2 µM (inactive),2.33 µM (inactive),17.3 µM (inactive),9.93 µM (inactive),4.29 µM (inactive),16.9 µM (inactive),13.5 µM (inactive),8.24 µM (inactive)
